Data taken from patent US20250326814A1, “MODIFIED OXYNTOMODULIN AND METHODS OF USE THEREOF” (OPKO BIOLOGICS LTD., priority 2024, published 2025).
Non-standard residues stand in square brackets, D forms with d. Residues, ends and D or L forms follow the SMILES beside them. No end group written: not given here. *: point of attachment. X3 = O=C(O)CCCCCCCCCCCCCCCCCCC(=O)N[C@@H](CCC(=O)N[C@@H](CCC(=O)O)C(=O)NCCOCCOCC(=O)NCCOCCOCC(=O)NCCOCCOCC(=O)N[C@@H](CCCCNC(=O)C*)C(=O)NCC(=O)O)C(=O)O; X4 = O=C(O)CCCCCCCCCCCCCCCCC(=O)N[C@@H](CCC(=O)NCCOCCOCC(=O)NCCOCCOCC(=O)N[C@@H](CCCCNC(=O)C*)C(=O)NCC(=O)O)C(=O)O; Aib = CC(C)(N)C(=O)O

Tests used:
DIO mice [1] = assay: Body composition (fat and lean tissue mass) in DIO mice; assay type: in vivo
Method: The body composition of mice was assessed by an EchoMRI 3 in 1 Body composition analyzer (EchoMRI, US). Non-anaesthetized animals were placed in a plastic tube inside the MRI scanner for approximately 80 seconds. The body composition was reported as fat mass and fat free mass (lean mass).
(§1) Sixty C57BL/6JRj male mice were fed a high fat diet (60% HFD, D12492—Ssniff) for 20 weeks before treatment start. […] Body weight and food intake (24 h) were measured daily. In week 3, an OGTT study was performed. Baseline and preterminal fasting blood glucose and plasma insulin were assessed. Preterminal plasma TC and TG were assessed. Terminal endpoints included liver and heart weight, liver TC, TG, […] and lipid content (HE staining).

DIO mice [2] = assay: Body weight and food intake in DIO mice, 4 weeks daily treatment; assay type: in vivo; details: for food consumption / cumulative food intake (FIG. 17B, 18B): OPK-88604 vs semaglutide; for cumulative food intake on day 28, P compared to Vehicle (FIG. 15): 15 nmol/kg q.d. SC, 4 weeks
Method: The animals were individually weighed and analyzed for lipid and cholesterol levels prior to treatment and following completion of the study. The levels of fasting glucose and insulin levels were analyzed, and oral glucose tolerance test was performed and compared between groups The levels of plasma triglycerides and cholesterol were evaluated at the end of study and compared to base levels prior to treatment. Levels of total cholesterol, triglycerides and glycogen were also examined at the end of study. Histology of liver was used to analyze for lipid droplets in the liver. All tests were conducted using routine methods known in the art.
The mice used in the studies were the gubra diet-induced obese (DIO) mouse model. This mouse model is fed a high fat diet that results in rapid weight gain. The DIO mice were based on male C57BI/6J mice and ready for experiment after 18 weeks on a 60% high fat diet.
To ensure accurate monitoring of weight changes over the course of the study, the animals were weighed daily with precision, prior to dosing at 7:00 AM. Body weight data was recorded in two formats: (1) Absolute measurements: The direct weight of the animal each day, and (2) Relative measurements: The weight expressed as a percentage relative to the body weight recorded on Day 1.
as §1

DIO mice [3] = assay: Liver H&E staining for lipid droplets / liver lipid in DIO mice; assay type: in vivo; details: 15 nmol/kg QD SC
Method: In summary, glass slides with paraffin embedded sections were deparaffinated in xylene and rehydrated in series of graded ethanol.
Slides treated with histochemical and immunohistochemical stains were scanned using a 20× objective in a ScanScope AT slide scanner (Aperio).
Hematoxylin & Eosin (H&E) staining: Sections of FFPE tissue were incubated in Mayer's Hematoxylin (Dako), washed in tap water, stained in Eosin Y solution (Sigma-Aldrich), dehydrated in graded ethanol and cover slipped.
as §1

DIO mice [4] = assay: Fasting blood glucose and plasma insulin in DIO mice; assay type: in vivo; details: 15 nmol/kg q.d.
Method: For in vivo blood samples, tail-vein, tongue or cheek blood was collected in a Microvette tube of appropriate dimensions with anticoagulant and mixed by inversion 5 times. Blood was placed at 4° C. until centrifuged at 3000 g for 10 minutes. The plasma supernatants were transferred to new tubes and immediately frozen on dry ice. The samples were stored at −70° C.
Insulin: Blood samples were collected in heparinized tubes and plasma was separated and stored at −70° C. until analysis. Insulin was measured using the commercial MSD platform (Meso Scale Diagnostics).
as §1

DIO mice [5] = assay: Plasma cholesterol and triglyceride in DIO mice; assay type: in vivo; details: 15 nmol/kg q.d.
Method: For termination blood samples, during anesthesia with isoflurane, the abdominal cavity was opened, and cardiac blood was drawn with a syringe into a Microvette/Vacuette of appropriate dimensions with anticoagulant and mixed by inversion 5 times. Blood was placed at 4° C. until centrifuged at 3000 g for 10 minutes. The plasma supernatants were transferred to new tubes and immediately frozen on dry ice. The samples were stored at −70° C.
Alanine transaminase (ALT), Aspartate transaminase (AST), Triglycerides (TG) and Total Cholesterol (TC): Blood samples were collected in heparinized tubes and plasma was separated and stored at −70° C. until analysis. Samples were measured using commercial kits (Roche Diagnostics), on the cobas c 501 autoanalyzer.
as §1

[6] = target: T1, glucagon-like peptide-1 (GLP1) receptor (Homo sapiens, UniProt P43220); assay: GLP-1 activity EC50 of OXM analogs and GLP-1 therapeutics (Example 4, Table 9); assay type: cell-based; details: GLP-1 activity; Table 9; read-out: EC50
T1 construct: expressed in transfected cells; host or cells: CHO-K1
From the text: The potencies of the modified OXM analogs newly disclosed in the present application, the OXM Analog alone, and the PEGylated OXM analog were examined and compared by measuring the EC50 of both receptors, glucagon-like peptide-1 (GLP1) and glucagon (GCGR).

GCGR = GCGR (Homo sapiens, UniProt P47871); assay: CBA potency assay, GCGR (Tables 10 and 11); assay type: cell-based
From the text: (§2) The impact of the longevity-enabling molecule (PEG Vs. FA-peptide/binder complex) on the peptide potency was studied.

GLP1 = GLP1 (Homo sapiens, UniProt P43220); assay: CBA potency assay, GLP1 (Tables 10 and 11); assay type: cell-based
GLP1, sequence (P43220 24-463): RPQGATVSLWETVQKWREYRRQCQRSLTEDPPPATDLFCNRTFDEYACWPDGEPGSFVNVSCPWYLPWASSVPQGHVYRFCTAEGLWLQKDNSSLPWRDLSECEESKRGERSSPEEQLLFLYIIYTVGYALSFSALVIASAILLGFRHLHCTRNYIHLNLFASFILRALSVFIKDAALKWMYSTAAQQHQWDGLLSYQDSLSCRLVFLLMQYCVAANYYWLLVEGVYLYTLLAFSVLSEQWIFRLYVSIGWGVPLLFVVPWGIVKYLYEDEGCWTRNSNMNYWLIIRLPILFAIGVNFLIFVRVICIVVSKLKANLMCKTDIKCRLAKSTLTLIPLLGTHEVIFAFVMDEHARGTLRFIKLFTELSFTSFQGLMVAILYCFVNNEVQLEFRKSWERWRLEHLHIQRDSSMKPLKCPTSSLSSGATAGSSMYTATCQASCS
From the text: as §2

T1 sequence (P43220 24-463): as above
GCGR, sequence (P47871 26-477): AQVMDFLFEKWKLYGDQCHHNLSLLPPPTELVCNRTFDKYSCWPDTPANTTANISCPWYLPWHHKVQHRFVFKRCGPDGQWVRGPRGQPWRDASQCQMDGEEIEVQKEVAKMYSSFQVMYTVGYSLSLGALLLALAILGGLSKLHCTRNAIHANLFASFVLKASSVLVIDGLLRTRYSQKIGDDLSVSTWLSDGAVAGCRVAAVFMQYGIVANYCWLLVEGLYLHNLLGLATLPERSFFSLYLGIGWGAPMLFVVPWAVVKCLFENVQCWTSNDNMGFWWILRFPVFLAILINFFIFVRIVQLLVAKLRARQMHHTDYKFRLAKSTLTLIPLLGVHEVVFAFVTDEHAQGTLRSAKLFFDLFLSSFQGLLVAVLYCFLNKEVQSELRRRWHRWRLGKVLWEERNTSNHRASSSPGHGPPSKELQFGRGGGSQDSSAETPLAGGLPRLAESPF

## Semaglutide
DIO mice [1]; 15 nmol/kg QD SC
  change in lean tissue mass from baseline, P compared to Vehicle (FIG. 23B): < 0.05
  relative fat tissue mass / relative lean tissue mass at week 4, P compared to Vehicle (FIG. 22A, 22B): < 0.05
DIO mice [1]; 15 nmol/kg daily, 28 days, OPK-88604 vs semaglutide
  relative lean body mass and fat mass change from baseline on day 28 (FIG. 24A, 24B): statistically similar
DIO mice [2]; 15 nmol/kg QD SC
  absolute body weight at day 28, P compared to Vehicle (FIG. 16A): < 0.01
DIO mice [2]; 15 nmol/kg daily, 28 days
  food consumption / cumulative food intake (FIG. 17B, 18B): reduced food consumption significantly more than OPK-88604 treatment
DIO mice [2]; 15 nmol/kg daily, 28 days, OPK-88604 vs semaglutide vs placebo
  weight loss from baseline (FIG. 17A, 18A): similar
DIO mice [2]; 15 nmol/kg daily, 28 days, listed as semaglutide
  food consumption / cumulative food intake (FIG. 17B, 18B): significantly decreased
DIO mice [2]
  cumulative food intake on day 28, P compared to Vehicle (FIG. 15): < 0.05
DIO mice [3]
  relative liver lipid / total liver lipid, P compared to Vehicle (FIG. 31A, 31B): < 0.05

## Tirzepatide [reference compound]
DIO mice [4]
  glucose tolerance plasma insulin at week 1, P compared to Vehicle (FIG. 36A): < 0.01
  glucose tolerance plasma insulin at week 4, P compared to Vehicle (FIG. 36B): < 0.01
DIO mice [1]; 15 nmol/kg QD SC
  absolute fat tissue mass at week 4, P compared to Vehicle (FIG. 21A): < 0.001
  relative fat tissue mass / relative lean tissue mass at week 4, P compared to Vehicle (FIG. 22A, 22B): < 0.001
DIO mice [2]
  cumulative food intake on day 28, P compared to Vehicle (FIG. 15): < 0.001
DIO mice [3]
  relative liver lipid / total liver lipid, P compared to Vehicle (FIG. 31A, 31B): < 0.01
DIO mice [5]
  plasma triglyceride at termination, P compared to Vehicle (FIG. 32B): < 0.01

## CC[C@H](C)[C@H](NC(=O)[C@H](CC(N)=O)NC(=O)[C@H](CC(N)=O)NC(=O)[C@H](CCCNC(=N)N)NC(=O)[C@H](CC(N)=O)NC(=O)[C@H](CCCNC(=N)N)NC(=O)CNC(=O)C(C)(C)NC(=O)[C@H](CC(N)=O)NC(=O)[C@H](CC(C)C)NC(=O)[C@H](CC(C)C)NC(=O)[C@H](Cc1c[nH]c2ccccc12)NC(=O)[C@H](CCC(N)=O)NC(=O)[C@@H](NC(=O)[C@H](Cc1ccccc1)NC(=O)[C@H](CCC(=O)O)NC(=O)[C@H](CCC(N)=O)NC(=O)[C@H](C)NC(=O)[C@H](CCCCN)NC(=O)[C@H](CCCCN)NC(=O)[C@H](CO)NC(=O)[C@H](CC(=O)O)NC(=O)[C@H](CC(C)C)NC(=O)[C@H](Cc1ccc(O)cc1)NC(=O)[C@H](CCCCN)NC(=O)[C@H](CO)NC(=O)[C@H](Cc1ccc(O)cc1)NC(=O)[C@H](CC(=O)O)NC(=O)[C@H](CO)NC(=O)[C@@H](NC(=O)[C@H](Cc1ccccc1)NC(=O)[C@@H](NC(=O)CNC(=O)[C@H](CCC(N)=O)NC(=O)C(C)(C)NC(=O)[C@@H](N)Cc1c[nH]cn1)[C@@H](C)O)[C@@H](C)O)C(C)C)C(=O)N[C@@H](C)C(=O)N[C@@H](CSCC(=O)NCCCC[C@H](NC(=O)COCCOCCNC(=O)COCCOCCNC(=O)COCCOCCNC(=O)[C@H](CCC(=O)O)NC(=O)CC[C@H](NC(=O)CCCCCCCCCCCCCCCCCCC(=O)O)C(=O)O)C(=O)NCC(=O)O)C(N)=O [Variant 3] (H-H[Aib]QGTFTSDYSKYLDSKKAQEFVQWLLN[Aib]GRNRNNIAC(X3)-NH2)
[6]
  EC50: 0.15 nM

## OPK-88003 FA-conjugate: either the modified OXM of Formula XXII or the modified OXM of Formula XXIII (H[Aib]QGTFTSDYSKYLDSKKAQEFVQWLLN[Aib]GRNRNNIACC; not fully specified (C-terminus); also: fatty acid binder on Cys38 or Cys39, isomer not given here)
GCGR; Table 10
  EC50 ratio (GCGR\GLP-1R): 7.6
GCGR; Table 11, + HSA
  EC50 ratio (GCGR\GLP-1R): 23.3
GCGR; Table 11, without HSA
  EC50 ratio (GCGR\GLP-1R): 15.2
GLP1; Table 11, without HSA
  Activity fold reduction compared to OPK-88003 KPI (GLP1): non

## CC[C@H](C)[C@H](NC(=O)[C@H](CC(N)=O)NC(=O)[C@H](CC(N)=O)NC(=O)[C@H](CCCNC(=N)N)NC(=O)[C@H](CC(N)=O)NC(=O)[C@H](CCCNC(=N)N)NC(=O)CNC(=O)C(C)(C)NC(=O)[C@H](CC(N)=O)NC(=O)[C@H](CC(C)C)NC(=O)[C@H](CC(C)C)NC(=O)[C@H](Cc1c[nH]c2ccccc12)NC(=O)[C@H](CCC(N)=O)NC(=O)[C@@H](NC(=O)[C@H](Cc1ccccc1)NC(=O)[C@H](CCC(=O)O)NC(=O)[C@H](CCC(N)=O)NC(=O)[C@H](C)NC(=O)[C@H](CCCCN)NC(=O)[C@H](CCCCN)NC(=O)[C@H](CO)NC(=O)[C@H](CC(=O)O)NC(=O)[C@H](CC(C)C)NC(=O)[C@H](Cc1ccc(O)cc1)NC(=O)[C@H](CCCCN)NC(=O)[C@H](CO)NC(=O)[C@H](Cc1ccc(O)cc1)NC(=O)[C@H](CC(=O)O)NC(=O)[C@H](CO)NC(=O)[C@@H](NC(=O)[C@H](Cc1ccccc1)NC(=O)[C@@H](NC(=O)CNC(=O)[C@H](CCC(N)=O)NC(=O)C(C)(C)NC(=O)[C@@H](N)Cc1c[nH]cn1)[C@@H](C)O)[C@@H](C)O)C(C)C)C(=O)N[C@@H](C)C(=O)N[C@@H](CS)C(N)=O [MOD-604 KPI] (HELM PEPTIDE1{H.[Aib].Q.G.T.F.T.S.D.Y.S.K.Y.L.D.S.K.K.A.Q.E.F.V.Q.W.L.L.N.[Aib].G.R.N.R.N.N.I.A.C.[am]}$$$$V2.0)
[6]
  EC50: 0.13 nM
GCGR; Table 10
  % EC50 compare to KPI (GCGR): 72%
  Activity fold reduction compared to OPK-88003 KPI (GCGR): 1.4 fold
  EC50: 0.83 nM
  EC50 ratio (GCGR\GLP-1R): 2.9
GLP1; Table 10
  % EC50 compare to KPI (GLP1): 45%
  Activity fold reduction compared to OPK-88003 KPI (GLP1): 2.2 fold
  EC50: 0.282 nM

## CC[C@H](C)[C@H](NC(=O)[C@H](CC(N)=O)NC(=O)[C@H](CC(N)=O)NC(=O)[C@H](CCCNC(=N)N)NC(=O)[C@H](CC(N)=O)NC(=O)[C@H](CCCNC(=N)N)NC(=O)CNC(=O)C(C)(C)NC(=O)[C@H](CC(N)=O)NC(=O)[C@H](CC(C)C)NC(=O)[C@H](CC(C)C)NC(=O)[C@H](Cc1c[nH]c2ccccc12)NC(=O)[C@H](CCC(N)=O)NC(=O)[C@@H](NC(=O)[C@H](Cc1ccccc1)NC(=O)[C@H](CCC(=O)O)NC(=O)[C@H](CCC(N)=O)NC(=O)[C@H](C)NC(=O)[C@H](CCCCN)NC(=O)[C@H](CCCCN)NC(=O)[C@H](CO)NC(=O)[C@H](CC(=O)O)NC(=O)[C@H](CC(C)C)NC(=O)[C@H](Cc1ccc(O)cc1)NC(=O)[C@H](CCCCN)NC(=O)[C@H](CO)NC(=O)[C@H](Cc1ccc(O)cc1)NC(=O)[C@H](CC(=O)O)NC(=O)[C@H](CO)NC(=O)[C@@H](NC(=O)[C@H](Cc1ccccc1)NC(=O)[C@@H](NC(=O)CNC(=O)[C@H](CCC(N)=O)NC(=O)C(C)(C)NC(=O)[C@@H](N)Cc1c[nH]cn1)[C@@H](C)O)[C@@H](C)O)C(C)C)C(=O)N[C@@H](C)C(=O)N[C@@H](CSCC(=O)NCCCC[C@H](NC(=O)COCCOCCNC(=O)COCCOCCNC(=O)CC[C@H](NC(=O)CCCCCCCCCCCCCCCCC(=O)O)C(=O)O)C(=O)NCC(=O)O)C(N)=O [Variant 2] (H-H[Aib]QGTFTSDYSKYLDSKKAQEFVQWLLN[Aib]GRNRNNIAC(X4)-NH2)
[6]
  EC50: 0.1 nM
